SMILES strings stand for the structures. Values after ≈ are worked out from the molar mass of the structure shown.

As usually defined, the ED50 is the dose that gives a 50% effect, or the effect in half of the subjects. Low values mean an effect at a small dose, high ones a need for a large dose.

Experiment [1] relates to Staphylococcus aureus X400. As to the kind of experiment: standard agar-dilution assay (MIC). The experiment is classed as cell-based. To be noted: Staphylococcus aureus X400, methicillin-resistant strain, unit assumed. How it is done: (§1) The MIC's in Table II were determined by standard agar-dilution assays. The MIC's in Table III were obtained using a conventional broth-dilution microtiter test.
^c Methicillinresistant-strain

The next experiment relates to Streptococcus sp. 80. The experiment can be described thus: conventional broth-dilution microtiter test (MIC). The format is cell-based. To be noted: unit assumed. How it is done:
as §1

The test system of the next experiment is Staphylococcus aureus. As to the kind of experiment: conventional broth-dilution microtiter test (MIC). The experiment is classed as cell-based. To be noted: unit assumed. How it is done: as §1
Another experiment concerns Mycoplasma hyorhinis. As to the kind of experiment: conventional broth-dilution microtiter test (MIC). The experiment is classed as cell-based. The conditions noted are these: unit assumed. How it is done:
as §1

For a further experiment, the system named is Mycoplasma gallisepticum. As to the kind of experiment: conventional broth-dilution microtiter test (MIC). The conditions noted are these: unit assumed. The experiment is classed as cell-based. Here is the method:
as §1

Another experiment deals with Mycoplasma synoviae. The experiment can be described thus: conventional broth-dilution microtiter test (MIC). The format is cell-based. To be noted: unit assumed. Here is the method:
as §1

For experiment [2], the system named is Pasteurella multocida 17E. The experiment can be described thus: conventional broth-dilution microtiter test (MIC). The experiment is classed as cell-based. To be noted: bovine isolate, unit assumed. How it is done: as §1
Experiment [3] deals with Pasteurella multocida 60A. The experiment can be described thus: conventional broth-dilution microtiter test (MIC). The format is cell-based. To be noted: avian isolate, unit assumed. How it is done: as §1
The test system of experiment [4] is Streptococcus pyogenes C203. The experiment can be described thus: experimental infection in mice (ED50). The experiment is classed as in vivo. To be noted: doses given 1 and 4 hours postinfection. Here is the method: The 23-ester derivatives of DMT of this invention have shown in vivo antimicrobial activity against experimental bacterial infections caused by gram-positive bacteria. When two doses of test compound were admininstered to mice with experimental infections, the activity observed was measured as an ED50 value [effective dose in mg/kg to protect 50% of the test animals: see Warren Wick, et al., J. Bacteriol. 81, 233-235 (1961)].
^a mg/kg × 2; doses given 1 and 4 hours postinfection

In experiment [5] the test system is Staphylococcus aureus V41. As to the kind of experiment: standard agar-dilution assay (MIC). The experiment is classed as cell-based. To be noted: Staphylococcus aureus V41, penicillin-resistant strain, unit assumed. Here is the method: as §1
^b Penicillinresistant strain

The test system of experiment [6] is Haemophilus influenzae Holt. As to the kind of experiment: standard agar-dilution assay (MIC). The format is cell-based. The conditions noted are these: ampicillin-sensitive strain, unit assumed. Here is the method: as §1
Experiment [7] deals with Staphylococcus aureus X1.1. As to the kind of experiment: standard agar-dilution assay (MIC). The experiment is classed as cell-based. The conditions noted are these: unit assumed. How it is done: as §1
Experiment [8] has as its system Streptococcus Group D X66. The experiment can be described thus: standard agar-dilution assay (MIC). The format is cell-based. The conditions noted are these: unit assumed. How it is done:
as §1

In experiment [9] the test system is Streptococcus pyogenes C203. The experiment can be described thus: standard agar-dilution assay (MIC). The conditions noted are these: unit assumed. The experiment is classed as cell-based. How it is done: as §1
For experiment [10], the system named is Staphylococcus aureus S13E. The experiment can be described thus: standard agar-dilution assay (MIC). The experiment is classed as cell-based. To be noted: unit assumed. How it is done: as §1
In experiment [11] the test system is Staphylococcus epidermidis EPI1. As to the kind of experiment: standard agar-dilution assay (MIC). The format is cell-based. To be noted: unit assumed. Here is the method: as §1
The test system of experiment [12] is Staphylococcus epidermidis EPI2. The experiment can be described thus: standard agar-dilution assay (MIC). The format is cell-based. To be noted: unit assumed. Here is the method: as §1
A further experiment has as its system Streptococcus Group 9960. The experiment can be described thus: standard agar-dilution assay (MIC). The format is cell-based. The conditions noted are these: unit assumed. How it is done: as §1
Experiment [13] deals with Haemophilus influenzae R252. As to the kind of experiment: standard agar-dilution assay (MIC). The experiment is classed as cell-based. The conditions noted are these: Haemophilus influenzae R252, ampicillin-resistant strain, unit assumed. Here is the method:
as §1

The test system of experiment [14] is Streptococcus pneumoniae Park I. The experiment is classed as cell-based. To be noted: agar dilution, unit assumed. Here is the method: as §1
(Agar dilution tests growth on a series of plates holding different concentrations.)

`CCC(=O)OCC1C=C(C)C=CC(=O)C(C)CC(CC=O)C(OC2OC(C)C(OC3CC(C)(O)C(O)C(C)O3)C(N(C)C)C2OC(=O)CC)C(C)C(O)CC(=O)OC1CC` (centres unmarked) [Compound 3, 2',23-Di-O-Propionyl-DMT]: the MIC in experiment [1] stood at 2 µg/mL (≈ 2.34 µM); in the experiment with Streptococcus sp. 80 it was 0.78 µg/mL (≈ 0.913 µM); against Staphylococcus aureus, 0.78 µg/mL (≈ 0.913 µM); against Mycoplasma hyorhinis, 1.56 µg/mL (≈ 1.83 µM); in the experiment on Mycoplasma gallisepticum it was 0.78 µg/mL (≈ 0.913 µM); with Mycoplasma synoviae it was 0.195 µg/mL (≈ 0.228 µM). The MIC was determined as 6.25 µg/mL (≈ 7.32 µM) in experiment [2]; 12.5 µg/mL (≈ 14.6 µM) in experiment [3]; 0.5 µg/mL (≈ 0.585 µM) in experiment [5]; 16 µg/mL (≈ 18.7 µM) in experiment [6]; 0.5 µg/mL (≈ 0.585 µM) in experiment [7]; 1 µg/mL (≈ 1.17 µM) in experiment [8]. Besides, the MIC in experiment [9] was found to be 0.5 µg/mL (≈ 0.585 µM); in experiment [10], 1 µg/mL (≈ 1.17 µM); in experiment [11], 0.5 µg/mL (≈ 0.585 µM); in experiment [12], 1 µg/mL (≈ 1.17 µM); with Streptococcus Group 9960, 1 µg/mL (≈ 1.17 µM); in [13], 16 µg/mL (≈ 18.7 µM). Moreover, the MIC in experiment [14] was 0.5 µg/mL (≈ 0.585 µM). Besides, the ED50 in [4] (C203, oral) was 117 mg/kg; in [4] (C203, sc, subcutaneous), over 20 mg/kg.
In the case of `CCC1OC(=O)CC(O)C(C)C(OC2OC(C)C(OC3CC(C)(O)C(O)C(C)O3)C(N(C)C)C2OC(C)=O)C(CC=O)CC(C)C(=O)C=CC(C)=CC1COC(C)=O` (centres unmarked) [Compound 1, 2',23-Di-O-Acetyl-DMT], the MIC in experiment [1] came out at 2 µg/mL (≈ 2.42 µM); in the experiment on Streptococcus sp. 80, 0.78 µg/mL (≈ 0.944 µM); in the experiment with Staphylococcus aureus, 0.78 µg/mL (≈ 0.944 µM); in the experiment on Mycoplasma hyorhinis, 3.12 µg/mL (≈ 3.78 µM); with Mycoplasma gallisepticum, 0.39 µg/mL (≈ 0.472 µM); in experiment [2] it was 6.25 µg/mL (≈ 7.57 µM). The MIC is 12.5 µg/mL (≈ 15.1 µM) in experiment [3]; 1 µg/mL (≈ 1.21 µM) in experiment [5]; 16 µg/mL (≈ 19.4 µM) in experiment [6]; 1 µg/mL (≈ 1.21 µM) in experiment [7]; 2 µg/mL (≈ 2.42 µM) in experiment [8]; 1 µg/mL (≈ 1.21 µM) in experiment [9]. For the same compound, the MIC amounted to 2 µg/mL (≈ 2.42 µM) in experiment [10]; 2 µg/mL (≈ 2.42 µM) in experiment [11]; 2 µg/mL (≈ 2.42 µM) in experiment [12]; 1 µg/mL (≈ 1.21 µM) against Streptococcus Group 9960; 16 µg/mL (≈ 19.4 µM) in experiment [13]; 0.25 µg/mL (≈ 0.303 µM) in experiment [14]. For the same compound, the ED50 in experiment [4] (C203, oral) was 212 mg/kg; in experiment [4] (C203, sc, subcutaneous), over 20 mg/kg.
`CCC(=O)OCC1C=C(C)C=CC(=O)C(C)CC(CC=O)C(OC2OC(C)C(OC3CC(C)(O)C(O)C(C)O3)C(N(C)C)C2O)C(C)C(O)CC(=O)OC1CC` (centres unmarked) [Compound 4, 23-O-Propionyl-DMT]: the MIC in [1] turned out to be 2 µg/mL (≈ 2.51 µM); in the experiment on Streptococcus sp. 80 it was 0.39 µg/mL (≈ 0.489 µM); in the experiment with Staphylococcus aureus it was 0.78 µg/mL (≈ 0.977 µM); in the experiment on Mycoplasma hyorhinis it was 3.12 µg/mL (≈ 3.91 µM); in the experiment with Mycoplasma gallisepticum, 0.39 µg/mL (≈ 0.489 µM); in experiment [2] it was 6.25 µg/mL (≈ 7.83 µM). Also, the MIC is 25 µg/mL (≈ 31.3 µM) in experiment [3]; 0.5 µg/mL (≈ 0.627 µM) in experiment [5]; 32 µg/mL (≈ 40.1 µM) in experiment [6]; 1 µg/mL (≈ 1.25 µM) in experiment [7]; 1 µg/mL (≈ 1.25 µM) in [8]; 0.5 µg/mL (≈ 0.627 µM) in [9]. In addition, the MIC in experiment [10] is 1 µg/mL (≈ 1.25 µM); in [11], 1 µg/mL (≈ 1.25 µM); in experiment [12] it was 1 µg/mL (≈ 1.25 µM); against Streptococcus Group 9960, 1 µg/mL (≈ 1.25 µM); in experiment [13] it was 32 µg/mL (≈ 40.1 µM). Moreover, the ED50 is 300 mg/kg in experiment [4] (C203, oral) and 13 mg/kg in [4] (C203, sc, subcutaneous).
For the compound `CCC1OC(=O)CC(O)C(C)C(OC2OC(C)C(OC3CC(C)(O)C(O)C(C)O3)C(N(C)C)C2O)C(CC=O)CC(C)C(=O)C=CC(C)=CC1COC(=O)OC` (centres unmarked) [Compound 25], the MIC in experiment [1] stood at 0.5 µg/mL (≈ 0.625 µM); with Streptococcus sp. 80, 0.78 µg/mL (≈ 0.975 µM); in the experiment with Staphylococcus aureus, 1.56 µg/mL (≈ 1.95 µM); against Mycoplasma hyorhinis, 1.56 µg/mL (≈ 1.95 µM); against Mycoplasma gallisepticum, 0.097 µg/mL (≈ 0.121 µM); in the experiment with Mycoplasma synoviae it was 0.097 µg/mL (≈ 0.121 µM). Besides, the MIC in experiment [2] is 6.25 µg/mL (≈ 7.81 µM); in experiment [3] it was 12.5 µg/mL (≈ 15.6 µM); in [5] it was 0.5 µg/mL (≈ 0.625 µM); in experiment [6], 8 µg/mL (≈ 10 µM); in experiment [7], 0.25 µg/mL (≈ 0.313 µM); in experiment [8] it was 0.5 µg/mL (≈ 0.625 µM). Besides, the MIC in experiment [9] amounted to 0.25 µg/mL (≈ 0.313 µM); in [10], 0.25 µg/mL (≈ 0.313 µM); in experiment [11], 0.5 µg/mL (≈ 0.625 µM); against Streptococcus Group 9960, 0.5 µg/mL (≈ 0.625 µM); in [13] it was 8 µg/mL (≈ 10 µM); in experiment [14], 0.06 µg/mL (≈ 0.075 µM). Also, the ED50 was over 100 mg/kg in experiment [4] (C203, oral) and 7.6 mg/kg in experiment [4] (C203, sc, subcutaneous).

The values above are taken from patent publication US4396613A, “23-Ester derivatives of DMT and method of using same” (Eli Lilly and Company, priority 1981, dated 1983).
